# Molecular target: T1, Stearoyl-CoA desaturase (Homo sapiens, UniProt O00767)
# T1 sequence (O00767 whole entry): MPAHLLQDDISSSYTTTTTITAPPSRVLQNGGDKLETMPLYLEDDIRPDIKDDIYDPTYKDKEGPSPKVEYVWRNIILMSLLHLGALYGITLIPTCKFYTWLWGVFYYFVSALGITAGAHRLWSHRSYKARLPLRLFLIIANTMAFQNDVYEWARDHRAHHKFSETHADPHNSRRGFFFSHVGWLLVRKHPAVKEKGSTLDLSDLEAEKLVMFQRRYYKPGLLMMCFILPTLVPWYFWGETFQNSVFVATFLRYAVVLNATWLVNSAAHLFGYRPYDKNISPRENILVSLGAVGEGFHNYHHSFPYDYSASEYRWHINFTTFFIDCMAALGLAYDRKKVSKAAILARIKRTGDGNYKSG
# Assay: Enzyme Activity Assay: The potency of compounds of formula I against the stearoyl-CoA desaturase was determined by measuring the conversion of radiolabeled stearoyl-CoA to oleoyl-CoA using rat liver microsome or human SCD1 following previously published procedures with some modifications (Joshi, et al., J. Lipid Res., 18: 32-36 (1977); Talamo, et al., Anal. Biochem, 29: 300-304 (1969)). Liver microsome was prepared from male Wistar or Sprague Dawley rats on a high carbohydrate diet for 3 days (LabDiet #5803, Purina). The livers were homogenized (1:10 w/v) in a buffer containing 250 mM sucrose, 1 mM EDTA, 5 mM DTT and 50 mM Tris-HCl (pH 7.5). After a 100,000xg centrifugation for 60 min, the liver microsome pellet was suspended in a buffer containing 100 mM sodium phosphate, 20% glycerol, 2 mM DTT, and stored at -78° C. Human SCD1 desaturase system was reconstituted using human SCD1 from a baculovirus/Sf9 expression system, cytochrome B5 and cytochrome B5 reductase.
# Format: microsomes
row,IC50,SMILES
1,12 nM,O=C(O)Cn1nnc(-c2cnc(N3CCC4(CC3)CC(=O)c3c(Cl)cccc3O4)s2)n1
2,24 nM,O=C(O)Cn1nnc(-c2nnc(N3CCC4(CC3)CC(=O)c3c(Cl)cccc3O4)s2)n1
3,17 nM,O=C(O)Cn1nnc(-c2cc(N3CCC4(CC3)CC(=O)c3c(Cl)cccc3O4)no2)n1

# From ChEMBL document CHEMBL3886309, “Spiro compounds useful as inhibitors of stearoyl-coenzyme A delta-9 desaturase” (2015)
